Assay results from paper PMC8151276, “An Integrated Approach toward NanoBRET Tracers for Analysis of GPCR Ligand Engagement” (Molecules, 2021).

How the values were obtained:
Type in all cases: binding
HRH1 = target: T1, HRH1 (Homo sapiens, UniProt P35367); assay: NanoBRET screen HiBiT-HRH1 in HEK293; details: HRH1
T1 construct: purchased Promega (in-house HiBiT-GPCR construct library, NanoBRET)

FZD4 = target: T2, FZD4 (Homo sapiens, UniProt Q9ULV1); assay: NanoBRET screen HiBiT-FZD4 in HEK293; details: FZD4
T2 construct: purchased Promega (in-house HiBiT-GPCR construct library, NanoBRET)
T2 sequence (Q9ULV1 37-537): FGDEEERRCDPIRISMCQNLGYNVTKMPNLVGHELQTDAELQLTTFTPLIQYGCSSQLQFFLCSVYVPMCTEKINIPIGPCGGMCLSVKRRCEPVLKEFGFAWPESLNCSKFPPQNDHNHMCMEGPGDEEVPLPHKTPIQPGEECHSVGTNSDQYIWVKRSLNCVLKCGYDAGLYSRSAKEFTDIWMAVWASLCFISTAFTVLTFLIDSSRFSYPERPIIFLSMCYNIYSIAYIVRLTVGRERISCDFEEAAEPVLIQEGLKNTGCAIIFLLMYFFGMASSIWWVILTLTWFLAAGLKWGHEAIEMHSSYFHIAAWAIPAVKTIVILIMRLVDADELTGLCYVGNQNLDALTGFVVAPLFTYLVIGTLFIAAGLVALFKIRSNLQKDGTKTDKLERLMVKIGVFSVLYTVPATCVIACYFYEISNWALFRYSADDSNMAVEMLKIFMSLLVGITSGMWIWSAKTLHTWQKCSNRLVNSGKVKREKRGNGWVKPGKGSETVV
Procedure: Each tracer candidate was screened across the entire library of HiBiT-GPCR constructs using NanoBRET as the detection modality. As depicted in Figure 4A, the specificity of interactions was evaluated through decrease in BRET due to competitive displacement of a bound tracer by excess parental compound. Each tracer was analyzed for binding to each HiBiT-GPCR fusion in the absence and in the presence of competing parental compound. Briefly, HEK293 cells were transfected with HiBiT-GPCR constructs diluted into promoterless DNA to reduce expression and maximize translocation to the cell surface. Each tracer candidate was then screened at concentrations of 1 μM and 0.1 μM across cells expressing these fusions. Cells were treated for 1.5 h with tracer either alone or in the presence of 20 μM competing parental compound (i.e., control). BRET was measured upon addition of purified LgBiT and subsequent complementation with HiBiT genetically fused to a GPCR. The specificity of interactions was assessed through a decrease in BRET signal due to competitive displacement of the bound tracer. To further gauge the robustness of these interactions, the fold response over the control (i.e., BRETtracer/BRETcontrol) was calculated. We chose a 1.5-fold response, which translates to ≥7-fold signal over noise as the minimal threshold required to score an interaction as positive. […]. Below we highlight the screening results obtained for our exemplary fluorescent tracers based on Clozapine, Amitriptyline and AZD1283.
HiBiT-GPCR DNA constructs were diluted in 10 mM Tris pH 8 to a final concentration of 0.01 μg/μL, arrayed in 96-well plates and stored at −20 °C. For transfection, HEK293 cells were suspended in Opti-MEM (without phenol red) supplemented with 2% fetal bovine serum (Seradigm) and 100 units/mL penicillin–streptomycin (Gibco) at a final concentration of 220,000 cells/mL and dispensed into white 96-well plates at 90 μL/well. Subsequent transfections and screens were carried using an Agilent Bravo Automated Liquid Handling Platform. First, the 96-well HiBiT DNA arrays were diluted 25-fold in Opti-MEM (without serum or phenol red) to a final concentration of 0.0004 μg/μL and 20 μL of the diluted DNAs were transferred into new 96-well plates. Next, promoterless carrier DNA (1 μg/μL) was diluted 25-fold (0.04 μg/μL) and then dispensed into the diluted arrays at 20 μL/well. Following brief mixing, Viafect transfection reagent (Promega) diluted 16-fold into Opti-MEM was dispensed into the plates at 40 μL/well. After mixing by pipetting, plates were incubated for 10 min on the pipetting station deck. The DNA-transfection reagent complexes were then added to plates containing cells. To facilitate the screen, 10 μL of DNA-transfection reagent complexes were added in duplicates to the top 4 and bottom 4 rows, resulting in two identical 48-well arrays per plate. Plates with transfected cells were incubated for 18–20 h at 37 °C/5% CO2. A screen of each tracer across the entire library using two different concentrations requires duplicate plates of transfected cells. Depending on the number of tracers being screened, transfections can be scaled up using the same ratios. The next day, for each tracer, four 20× screening solutions in tracer dilution buffer (Promega) were prepared: two duplicates at final concentration of 20 μM and two duplicates at a final concentration of 2 μM. A competing unmodified compound was added to one of each duplicate at a final concentration of 400 μM. The four resulting solutions were diluted 4-fold in Opti-MEM without serum or phenol red to generate 5× solutions (5 µM and 0.5 µM tracer +/− 100 μM competing compound). To screen the library, a BioTek MultiFlo FX liquid dispenser was used to dispense 22.5 µL of tracer solution to the top 4 rows and 22.5 µL tracer + competing compound solution to the 4 bottom rows. Plates were briefly mixed on an orbital shaker and incubated for 1.5 h at room temperature. […]

CHRM1 = target: T3, CHRM1 (Homo sapiens, UniProt P11229); assay: NanoBRET screen HiBiT-CHRM1 in HEK293; details: CHRM1
T3 construct: purchased Promega (in-house HiBiT-GPCR construct library, NanoBRET)
T3 sequence (P11229 1-460): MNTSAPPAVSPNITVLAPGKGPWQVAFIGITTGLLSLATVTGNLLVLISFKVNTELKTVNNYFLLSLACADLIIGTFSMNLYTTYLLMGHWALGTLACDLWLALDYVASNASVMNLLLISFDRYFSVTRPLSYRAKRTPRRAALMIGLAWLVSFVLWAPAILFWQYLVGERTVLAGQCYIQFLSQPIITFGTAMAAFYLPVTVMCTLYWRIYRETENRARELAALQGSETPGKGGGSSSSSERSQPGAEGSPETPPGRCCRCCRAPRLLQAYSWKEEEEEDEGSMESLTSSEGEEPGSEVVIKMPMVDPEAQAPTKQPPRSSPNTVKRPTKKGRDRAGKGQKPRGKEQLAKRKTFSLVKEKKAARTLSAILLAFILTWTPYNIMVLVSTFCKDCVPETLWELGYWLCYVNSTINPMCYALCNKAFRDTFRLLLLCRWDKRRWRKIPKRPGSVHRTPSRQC

CHRM3 = target: T4, CHRM3 (Homo sapiens, UniProt P20309); assay: NanoBRET screen HiBiT-CHRM3 in HEK293; details: CHRM3
T4 construct: purchased Promega (in-house HiBiT-GPCR construct library, NanoBRET)
T4 sequence (P20309 whole entry): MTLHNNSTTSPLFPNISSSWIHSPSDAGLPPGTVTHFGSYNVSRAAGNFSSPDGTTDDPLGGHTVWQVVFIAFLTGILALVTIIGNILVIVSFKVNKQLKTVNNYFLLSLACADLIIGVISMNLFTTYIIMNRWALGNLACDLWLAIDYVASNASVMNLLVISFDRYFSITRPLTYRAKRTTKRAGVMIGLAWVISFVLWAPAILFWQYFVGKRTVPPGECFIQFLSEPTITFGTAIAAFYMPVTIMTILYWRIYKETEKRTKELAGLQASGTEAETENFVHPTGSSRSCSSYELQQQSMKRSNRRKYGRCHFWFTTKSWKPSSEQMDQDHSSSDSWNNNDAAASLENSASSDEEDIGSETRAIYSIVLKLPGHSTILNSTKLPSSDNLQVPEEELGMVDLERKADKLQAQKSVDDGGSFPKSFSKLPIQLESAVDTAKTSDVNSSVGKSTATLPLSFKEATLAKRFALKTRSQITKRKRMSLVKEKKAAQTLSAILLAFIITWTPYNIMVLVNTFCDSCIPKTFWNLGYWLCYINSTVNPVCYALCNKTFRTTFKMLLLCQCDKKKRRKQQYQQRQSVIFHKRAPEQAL

T1 sequence (P35367 whole entry): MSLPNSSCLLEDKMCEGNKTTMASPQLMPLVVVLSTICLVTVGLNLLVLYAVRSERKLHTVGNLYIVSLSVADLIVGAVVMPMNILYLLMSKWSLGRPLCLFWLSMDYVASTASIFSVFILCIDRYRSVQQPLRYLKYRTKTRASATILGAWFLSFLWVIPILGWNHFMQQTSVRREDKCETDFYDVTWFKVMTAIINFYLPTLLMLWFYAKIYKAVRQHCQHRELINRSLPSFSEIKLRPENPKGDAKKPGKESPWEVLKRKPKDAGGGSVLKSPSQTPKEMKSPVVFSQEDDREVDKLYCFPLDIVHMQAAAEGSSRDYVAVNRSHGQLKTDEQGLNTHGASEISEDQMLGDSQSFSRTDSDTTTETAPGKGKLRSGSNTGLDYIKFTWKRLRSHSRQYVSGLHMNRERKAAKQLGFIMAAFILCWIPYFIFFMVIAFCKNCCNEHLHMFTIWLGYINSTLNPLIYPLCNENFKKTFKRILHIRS

Row | SMILES | NanoBRET Fold Response (FZD4; 0.1μM tracer) | NanoBRET Fold Response (FZD4; 1μM tracer) | NanoBRET Fold Response (FZD4; tracer 0.1μM) | NanoBRET Fold Response (FZD4; tracer 1μM) | further results
1 | O=C(CCOCCOCCOCCOCCNC(=O)CCc1ccc2n1[B-](F)(F)[N+]1=C(c3ccc[nH]3)C=CC1=C2)NCCCN1CCN(C2=Nc3cc(Cl)ccc3Nc3ccccc32)CC1 [Clozapine-a-2-NB590] | 1.20 | 0.95 | – | – | NanoBRET Fold Response (HRH1; 0.1μM tracer): 4.67; NanoBRET Fold Response (HRH1; 1μM tracer): 4.78; NanoBRET Fold Response (CHRM1; 0.1μM tracer): 1.09; NanoBRET Fold Response (CHRM1; 1μM tracer): 0.98; NanoBRET Fold Response (CHRM3; 0.1μM tracer): 1.06; NanoBRET Fold Response (CHRM3; 1μM tracer): 0.92
2 | CN1CCN(C2=Nc3cc(Cl)ccc3Nc3ccc(CNC(=O)CCOCCOCCOCCOCCNC(=O)CCc4ccc5n4[B-](F)(F)[N+]4=C(c6ccc[nH]6)C=CC4=C5)cc32)CC1 [Clozapine-b-2-NB590] | 0.99 | 1.03 | – | – | –
3 | CN1CCN(C2=Nc3cc(Cl)ccc3N(CC(=O)NCCOCCOCCOCCOCCNC(=O)CCc3ccc4n3[B-](F)(F)[N+]3=C(c5ccc[nH]5)C=CC3=C4)c3ccccc32)CC1 [Clozapine-c-2-NB590] | 1.02 | 0.93 | – | – | –
4 | O=C(CCc1ccc2n1[B-](F)(F)[N+]1=C(c3ccc[nH]3)C=CC1=C2)NCc1ccc(C(=O)NCCOCCC(=O)N[C@@H]2CC[C@@]3(O)[C@H]4Cc5ccc(O)c6c5[C@@]3(CCN4CC3CC3)[C@H]2O6)cc1 [Naltrexone-3-NB590] | – | – | 0.89 | 1.14 | –
5 | Cc1cc2c(s1)Nc1ccccc1N=C2N1CCN(CCCNC(=O)CCOCCOCCOCCOCCNC(=O)CCc2ccc3n2[B-](F)(F)[N+]2=C(c4ccc[nH]4)C=CC2=C3)CC1 [Olanzapine-a-2-NB590] | – | – | 1.00 | 0.93 | –
6 | O=C(CCc1ccc2n1[B-](F)(F)[N+]1=C(c3ccc[nH]3)C=CC1=C2)NCc1ccc(C(=O)NCCOCCOCCNCC(O)COc2cccc3ccccc23)cc1 (stereo not shown) [Propranolol-3-NB590] | – | – | – | – | NanoBRET Fold Response (FZD4; 0.1μM): 1.09; NanoBRET Fold Response (FZD4; 1μM): 1.07
7 | O=C(CCc1ccc2n1[B-](F)(F)[N+]1=C(c3ccc[nH]3)C=CC1=C2)NCCOCCOCCNC(=O)OCCOCCN1CCN(C2=Nc3ccccc3Sc3ccccc32)CC1 [Quetiapine-a-2-NB590] | – | – | 0.96 | 0.91 | –
8 | Cc1nc2n(c(=O)c1CCN1CCC(c3noc4cc(F)ccc34)CC1)CCCC2OC(=O)NCCOCCOCCOCCOCCNC(=O)CCc1ccc2n1[B-](F)(F)[N+]1=C(c3ccc[nH]3)C=CC1=C2 (stereo not shown) [Risperidone-2-NB590] | – | – | 1.14 | 1.01 | –
